The target of assay [1] is Cannabinoid receptor 2 (Homo sapiens, UniProt P34972). The assay can be described thus: Displacement of [3H] CP-55,940 from human CB2 receptor expressed in HEK cells at 10 uM after 3 hrs by scintillation counting. Type of assay: cell-based. To be noted: for inhibition: HEK293. Background: Loss of bound radioactivity is the signal in a displacement assay; it reports binding, not function.

The target in assay [2] is T1, Cannabinoid receptor 1 (Homo sapiens, UniProt P21554). The assay is described as follows: Inverse agonist activity at human CB1 receptor expressed in Sf9 cells coexpressing Gbeta1gamma2 and RSG4 assessed as degradation of [gamma-33P]GTP after 20 mins by steady-state GTPase assay. Type of assay: cell-based.
T1 sequence (P21554 whole entry): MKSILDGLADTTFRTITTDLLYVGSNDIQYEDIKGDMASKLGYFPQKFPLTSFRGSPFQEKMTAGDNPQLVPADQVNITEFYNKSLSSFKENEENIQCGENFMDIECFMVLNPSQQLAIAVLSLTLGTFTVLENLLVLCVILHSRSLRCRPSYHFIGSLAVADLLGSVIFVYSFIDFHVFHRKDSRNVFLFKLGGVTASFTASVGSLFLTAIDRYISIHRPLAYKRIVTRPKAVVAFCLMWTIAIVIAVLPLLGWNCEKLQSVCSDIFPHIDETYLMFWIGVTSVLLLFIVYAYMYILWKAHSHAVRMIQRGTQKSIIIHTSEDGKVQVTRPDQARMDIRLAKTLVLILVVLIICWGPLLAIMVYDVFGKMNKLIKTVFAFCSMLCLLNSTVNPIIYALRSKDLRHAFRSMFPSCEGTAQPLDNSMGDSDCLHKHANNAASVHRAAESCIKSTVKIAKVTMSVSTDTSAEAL
Assay [3] concerns the target T1, Cannabinoid receptor 1. The following applies: Sf9, at 30 µM.
Description: Inverse agonist activity at human CB1 receptor expressed in Sf9 cells coexpressing Gbeta1gamma2 and RSG4 assessed as degradation of [gamma-33P]GTP at 30 uM after 20 mins by steady-state GTPase assay relative to control
In assay [4] the target is T1, Cannabinoid receptor 1. To be noted: Sf9, 30 uM.
Description: Agonist activity at human CB1 receptor expressed in Sf9 cells coexpressing Gbeta1gamma2 and RSG4 assessed as degradation of [gamma-33P]GTP at 30 uM after 20 mins by steady-state GTPase assay relative to control

The structures appear in SMILES notation.

Chain of Cannabinoid receptor 2 (P34972 whole entry): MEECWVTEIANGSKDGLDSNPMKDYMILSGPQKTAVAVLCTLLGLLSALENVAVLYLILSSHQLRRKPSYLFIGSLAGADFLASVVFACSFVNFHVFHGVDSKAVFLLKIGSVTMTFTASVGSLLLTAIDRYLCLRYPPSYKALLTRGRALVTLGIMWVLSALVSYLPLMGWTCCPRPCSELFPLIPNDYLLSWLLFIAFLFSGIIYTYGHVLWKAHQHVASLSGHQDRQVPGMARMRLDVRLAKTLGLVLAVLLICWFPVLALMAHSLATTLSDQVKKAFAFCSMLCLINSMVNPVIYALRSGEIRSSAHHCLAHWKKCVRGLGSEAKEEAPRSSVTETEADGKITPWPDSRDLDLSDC

Regarding `Cc1c(C(=O)NCCCCNC(=O)[C@@H]2CCC[C@H](C(=O)NCCCCNC(=O)c3nn(-c4ccc(Cl)cc4Cl)c(-c4ccc(Cl)cc4)c3C)C2)nn(-c2ccc(Cl)cc2Cl)c1-c1ccc(Cl)cc1`, the inhibition in assay [1] is 19.8%. Also, the EC50 in assay [2] was 24.3 µM. Besides, in assay [3], the Emax came out at 38.2%.

Take `Cc1c(C(=O)NCCCCCCCCN)nn(-c2ccc(Cl)cc2Cl)c1-c1ccc(Cl)cc1`: the inhibition in assay [1] is 9.5%. Moreover, the EC50 in assay [2] was 0.112 µM. Moreover, the Emax in assay [3] worked out at 92.8%.

For the compound `Cc1c(C(=O)NCCCCNCc2cccc(C(=O)NCCCCNC(=O)c3nn(-c4ccc(Cl)cc4Cl)c(-c4ccc(Cl)cc4)c3C)c2)nn(-c2ccc(Cl)cc2Cl)c1-c1ccc(Cl)cc1`, in assay [1], the inhibition came out at 15.3%. Besides, the EC50 in assay [2] stood at 1.62 µM. The compound also yielded an Emax in assay [3] of 78.1%.

`Cc1c(C(=O)NCCCCCCCNCCCCCCCNC(=O)c2nn(-c3ccc(Cl)cc3Cl)c(-c3ccc(Cl)cc3)c2C)nn(-c2ccc(Cl)cc2Cl)c1-c1ccc(Cl)cc1`: the inhibition in assay [1] was 34.4%. Moreover, in assay [2], the EC50 was 0.871 µM. For the same compound, the Emax in assay [3] was 89.2%.

With `Cc1c(C(=O)NCCCCN)nn(-c2ccc(Cl)cc2Cl)c1-c1ccc(Cl)cc1`, the inhibition in assay [1] came to 31.8%. For the same compound, the EC50 in assay [2] came out at 2.82 µM. For the same compound, the Emax in assay [3] worked out at 86.9%.

On to `Cc1c(C(=O)NCCCCNC(=O)[C@H]2CC[C@H](C(=O)NCCCCNC(=O)c3nn(-c4ccc(Cl)cc4Cl)c(-c4ccc(Cl)cc4)c3C)CC2)nn(-c2ccc(Cl)cc2Cl)c1-c1ccc(Cl)cc1`, for which, in assay [1], the inhibition was found to be 17.6%.

Regarding `Cc1c(C(=O)NCCCCNC(=O)c2cccc(C(=O)NCCCCNC(=O)c3nn(-c4ccc(Cl)cc4Cl)c(-c4ccc(Cl)cc4)c3C)c2)nn(-c2ccc(Cl)cc2Cl)c1-c1ccc(Cl)cc1`, in assay [1], the inhibition is 0%. For the same compound, the Emax in assay [3] came out at 19.5%.

Turning to `Cc1c(C(=O)NCCCCCCNC(=O)c2cccc(C(=O)NCCNC(=O)c3nn(-c4ccc(Cl)cc4Cl)c(-c4ccc(Cl)cc4)c3C)c2)nn(-c2ccc(Cl)cc2Cl)c1-c1ccc(Cl)cc1`, the inhibition in assay [1] was 3.2%. The compound further had an Emax in assay [3] of 43.6%.

`Cc1c(C(=O)NN2CCCCC2)nn(-c2ccc(Cl)cc2Cl)c1-c1ccc(I)cc1` had a maximal response (Emax) in assay [3] of 100%.

As to `Cc1c(C(=O)NCCCCCCCCNC(=O)c2cccc(C(=O)NCCCCCCCCNC(=O)c3nn(-c4ccc(Cl)cc4Cl)c(-c4ccc(Cl)cc4)c3C)c2)nn(-c2ccc(Cl)cc2Cl)c1-c1ccc(Cl)cc1`, the inhibition in assay [1] turned out to be 29.1%. Further, the concentration for a half-maximal effect (EC50) in assay [2] was 13.5 µM. Moreover, the Emax in assay [3] is 59.1%.

On to `Cc1c(C(=O)NCCCCCCCCNCc2ccccc2)nn(-c2ccc(Cl)cc2Cl)c1-c1ccc(Cl)cc1`, for which, in assay [1], the affinity corresponds to a Ki of 31 µM and the inhibition was found to be 93.9%. Besides, the EC50 in assay [2] is 0.123 µM. In addition, in assay [3], the Emax is 93.8%.

As to `Cc1c(C(=O)NCCCCCCCCNC(=O)[C@H]2CC[C@@H](C(=O)NCCCCCCCCNC(=O)c3nn(-c4ccc(Cl)cc4Cl)c(-c4ccc(Cl)cc4)c3C)CC2)nn(-c2ccc(Cl)cc2Cl)c1-c1ccc(Cl)cc1`, in assay [1], the inhibition turned out to be 27.3%. For the same compound, in assay [2], the EC50 was determined as 8.71 µM. In assay [3], this compound returned an Emax of 62.4%.

Take `Cc1c(C(=O)NCCCCNC(=O)[C@@H]2CCC[C@@H](C(=O)NCCCCNC(=O)c3nn(-c4ccc(Cl)cc4Cl)c(-c4ccc(Cl)cc4)c3C)C2)nn(-c2ccc(Cl)cc2Cl)c1-c1ccc(Cl)cc1` (relative stereo): in assay [1], the inhibition worked out at 41.1%. Further, in assay [2], the EC50 was determined as 8.55 µM. In addition, the Emax in assay [3] came out at 63%.

As for `Cc1c(C(=O)NCCCCCCCCNC(=O)[C@@H]2CCC[C@@H](C(=O)NCCCCCCCCNC(=O)c3nn(-c4ccc(Cl)cc4Cl)c(-c4ccc(Cl)cc4)c3C)C2)nn(-c2ccc(Cl)cc2Cl)c1-c1ccc(Cl)cc1`, the inhibition in assay [1] amounted to 18.8%. In addition, the EC50 in assay [2] was 7.6 µM. Also, the maximal effect (Emax) in assay [3] was found to be 45.5%.

For `Cc1c(C(=O)NCCCCCCCCNC(=O)[C@H]2CCCC[C@@H]2C(=O)NCCCCCCCCNC(=O)c2nn(-c3ccc(Cl)cc3Cl)c(-c3ccc(Cl)cc3)c2C)nn(-c2ccc(Cl)cc2Cl)c1-c1ccc(Cl)cc1` (relative stereo), in assay [1], the inhibition came out at 10.5%. The Emax in assay [3] came out at 14.3%.

Take `Cc1c(C(=O)NCCCCNCc2cccc(CNCCCCNC(=O)c3nn(-c4ccc(Cl)cc4Cl)c(-c4ccc(Cl)cc4)c3C)c2)nn(-c2ccc(Cl)cc2Cl)c1-c1ccc(Cl)cc1`: in assay [1], the inhibition is 7%. Also, the EC50 in assay [2] worked out at 8.85 µM. In addition, the Emax in assay [3] is 76.8%.

As for `Cc1c(C(=O)NCCCCNCc2ccc(CNCCCCNC(=O)c3nn(-c4ccc(Cl)cc4Cl)c(-c4ccc(Cl)cc4)c3C)cc2)nn(-c2ccc(Cl)cc2Cl)c1-c1ccc(Cl)cc1`, in assay [1], the Ki stood at 2.4 µM and the inhibition turned out to be 102%. For the same compound, the concentration giving a half-maximal response (EC50) in assay [2] was determined as 2.95 µM. The same compound came in with a maximal effect (Emax) in assay [3] of 93.2%.

As for `Cc1c(C(=O)NCCCCCCCCNC(=O)c2ccccc2)nn(-c2ccc(Cl)cc2Cl)c1-c1ccc(Cl)cc1`, the inhibition in assay [1] is 21.4%. Also, the EC50 in assay [2] came out at 0.501 µM. The Emax in assay [3] stood at 80.2%.

Regarding `Cc1c(C(=O)NCCCCCCCCNC(=O)C23CC4CC(C2)CC(C(=O)NCCCCCCCCNC(=O)c2nn(-c5ccc(Cl)cc5Cl)c(-c5ccc(Cl)cc5)c2C)(C4)C3)nn(-c2ccc(Cl)cc2Cl)c1-c1ccc(Cl)cc1`, the inhibition in assay [1] came to 4.1%. Also, in assay [2], the EC50 came out at 7.24 µM. For the same compound, the Emax in assay [3] was 34.7%.

For the compound `Cc1c(C(=O)NCCCCNC(=O)c2ccccc2)nn(-c2ccc(Cl)cc2Cl)c1-c1ccc(Cl)cc1`, the inhibition in assay [1] was 25.8%. Besides, the 50% effective concentration (EC50) in assay [2] was found to be 0.776 µM. The same compound yielded a maximal response (Emax) in assay [3] of 94%.

As for `Cc1c(C(=O)NCCCCNC(=O)c2ccc(C(=O)NCCCCNC(=O)c3nn(-c4ccc(Cl)cc4Cl)c(-c4ccc(Cl)cc4)c3C)cc2)nn(-c2ccc(Cl)cc2Cl)c1-c1ccc(Cl)cc1`, the inhibition in assay [1] worked out at 24.3%. In addition, in assay [2], the EC50 is 15 µM. For the same compound, in assay [3], the Emax turned out to be 50.2%.

Take `Cc1c(C(=O)NCCCCCCCCNC(=O)[C@H]2CC[C@H](C(=O)NCCCCCCCCNC(=O)c3nn(-c4ccc(Cl)cc4Cl)c(-c4ccc(Cl)cc4)c3C)CC2)nn(-c2ccc(Cl)cc2Cl)c1-c1ccc(Cl)cc1`: the inhibition in assay [1] was 14.5%. Besides, in assay [2], the EC50 amounted to 9.55 µM. Moreover, in assay [3], the Emax amounted to 38.8%.

For the compound `Cc1c(C(=O)NCCCCCCCCNC(=O)[C@@H]2CCC[C@H](C(=O)NCCCCCCCCNC(=O)c3nn(-c4ccc(Cl)cc4Cl)c(-c4ccc(Cl)cc4)c3C)C2)nn(-c2ccc(Cl)cc2Cl)c1-c1ccc(Cl)cc1`, in assay [1], the inhibition was found to be 10.3%. Moreover, the EC50 in assay [2] turned out to be 3.16 µM. This compound also had a maximal effect (Emax) in assay [3] of 33.6%.

For the compound `Cc1c(C(=O)NN2CCCCC2)nn(-c2ccc(Cl)cc2Cl)c1-c1ccc(Cl)cc1`, in assay [1], the inhibition was found to be 9%.

As for `Cc1c(C(=O)NCCCCNC(=O)[C@H]2CCCC[C@@H]2C(=O)NCCCCNC(=O)c2nn(-c3ccc(Cl)cc3Cl)c(-c3ccc(Cl)cc3)c2C)nn(-c2ccc(Cl)cc2Cl)c1-c1ccc(Cl)cc1` (relative stereo), the inhibition in assay [1] was 14.6%. Also, the EC50 in assay [2] amounted to 10.5 µM. In addition, the Emax in assay [3] stood at 58.4%.

For the compound `Cc1c(C(=O)NCCCCCCCCNC(=O)C2CCCCC2)nn(-c2ccc(Cl)cc2Cl)c1-c1ccc(Cl)cc1`, in assay [1], the inhibition was 20.2%. Moreover, the EC50 in assay [2] was found to be 1.1 µM. This compound came in with an Emax in assay [3] of 78.8%.

Take `Cc1c(C(=O)NCCCCNC(=O)C2CCCCC2)nn(-c2ccc(Cl)cc2Cl)c1-c1ccc(Cl)cc1`: the inhibition in assay [1] came to 24.1%. Moreover, the EC50 in assay [2] stood at 0.11 µM. Moreover, the Emax in assay [3] is 91.5%.

In the case of `Cc1c(C(=O)NCCCCNCc2ccccc2)nn(-c2ccc(Cl)cc2Cl)c1-c1ccc(Cl)cc1`, in assay [1], the affinity corresponds to a Ki of 12.7 µM and the inhibition is 85.4%. Also, in assay [2], the EC50 amounted to 0.661 µM. This compound also showed an Emax in assay [3] of 92.5%.

For the compound `Cc1c(C(=O)NCCCCCCCN(CCCCCCCNC(=O)c2nn(-c3ccc(Cl)cc3Cl)c(-c3ccc(Cl)cc3)c2C)Cc2ccccc2)nn(-c2ccc(Cl)cc2Cl)c1-c1ccc(Cl)cc1`, the inhibition in assay [1] was found to be 22.6%. For the same compound, the concentration giving a half-maximal response (EC50) in assay [2] is 3.85 µM. For the same compound, the maximal response (Emax) in assay [3] was determined as 67.5%.

In the case of `Cc1c(C(=O)NCCCCCCCCNC(=O)c2ccc(C(=O)NCCCCCCCCNC(=O)c3nn(-c4ccc(Cl)cc4Cl)c(-c4ccc(Cl)cc4)c3C)cc2)nn(-c2ccc(Cl)cc2Cl)c1-c1ccc(Cl)cc1`, the inhibition in assay [1] turned out to be 9.7%. Also, in assay [2], the EC50 worked out at 40.7 µM. Moreover, the Emax in assay [3] was found to be 29.3%.

Regarding `CCCCCCC(C)(C)c1ccc([C@@H]2C[C@H](O)CC[C@H]2CCCO)c(O)c1`, the maximal response (Emax) in assay [4] was 67.4%.

On to `Cc1c(C(=O)NCCCCNCc2ccc(C(=O)NCCCCNC(=O)c3nn(-c4ccc(Cl)cc4Cl)c(-c4ccc(Cl)cc4)c3C)cc2)nn(-c2ccc(Cl)cc2Cl)c1-c1ccc(Cl)cc1`, for which the inhibition in assay [1] was determined as 23%. Further, the EC50 in assay [2] came to 1.91 µM. Besides, the Emax in assay [3] was 67.4%.

With `Cc1c(C(=O)NCCCCNC(=O)[C@H]2CC[C@@H](C(=O)NCCCCNC(=O)c3nn(-c4ccc(Cl)cc4Cl)c(-c4ccc(Cl)cc4)c3C)CC2)nn(-c2ccc(Cl)cc2Cl)c1-c1ccc(Cl)cc1`, the inhibition in assay [1] worked out at 25.9%. For the same compound, the EC50 in assay [2] was 9.66 µM. For the same compound, the Emax in assay [3] worked out at 61.9%.

As to `Cc1c(C(=O)NCCCCNC(=O)C23CC4CC(C2)CC(C(=O)NCCCCNC(=O)c2nn(-c5ccc(Cl)cc5Cl)c(-c5ccc(Cl)cc5)c2C)(C4)C3)nn(-c2ccc(Cl)cc2Cl)c1-c1ccc(Cl)cc1`, the inhibition in assay [1] turned out to be 15.8%. The concentration giving a half-maximal response (EC50) in assay [2] came out at 16.2 µM. In assay [3], this compound came in with an Emax of 66.4%.

As a reminder, the inhibition is the relative decrease from the control value, in per cent. One may read the EC50 as the concentration that produces a half-maximal response. What is called Emax is the maximal effect, on the per cent scale that the assay sets. What is called Ki is the dissociation constant of the complex between target and ligand, obtained from inhibition or displacement. A low value points to tighter binding.

Source of the values: ChEMBL document CHEMBL3351293, “Design, synthesis and in vitro evaluation of novel uni- and bivalent ligands for the cannabinoid receptor type 1 with variation of spacer length and structure” (Bioorg Med Chem Lett, 2014).
